Results: article PMC10484922, “Discovery of a selective and biologically active low-molecular weight antagonist of human interleukin-1β” (Nature Communications, 2023)
“And” between values parts separate entries of the source, which are not always exact repeats. Equal entries are not always repeated. Where two headings read alike, the source gives them in different places.

How the values were obtained:
[1] = target: T1, IL-1β (Homo sapiens, UniProt P01584); test: protein-observed 1H-13C-HMQC NMR binding (I/Io of Leu60 Cδ1H3); design: Mature hIL-1β was expressed in Escherichia coli; made in house; host or cells: Escherichia coli BL21 (DE3), pET17b; conditions: for I/Io (ratio of peak intensities of Leu60 Cδ1H3 in 1H-13C-HMQC spectra in presence and absence of ligand): hIL-1β 50 µM, 500 µM compound; for NMR I/Io values, Mean / NMR I/Io values, individual experiments (Exp1-2): source data
T1 sequence (P01584 117-269): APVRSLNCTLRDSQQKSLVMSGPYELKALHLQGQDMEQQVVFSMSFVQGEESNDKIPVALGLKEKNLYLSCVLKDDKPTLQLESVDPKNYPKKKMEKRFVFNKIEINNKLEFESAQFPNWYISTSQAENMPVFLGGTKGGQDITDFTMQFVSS
Experimental: ^1H–^13C- and ^1H–^15N-HMQC spectra were recorded on Bruker AVANCE 600 MHz and 800 MHz spectrometers equipped with TXI-cryocooled probeheads. In ligand binding experiments, protein concentrations were typically 50 μM in PBS, pH 7.4. Backbone assignments of hIL-1β in the ligand-bound state and unliganded state were obtained by a combination of a 3D triple resonance experiment HNCACB and a ^15N-edited NOESY spectrum, which were processed using TOPSPIN 3.2 and analyzed using CcpNmr AnalysisAssign 3.1.0[46]. ^15N-CEST experiments were run at weak B1 radiofrequency fields of 25 and 12.5 Hz on a Bruker AVANCE 800 MHz spectrometer with 113 increments and a total sweep width of 28 ppm in the pseudo-3D dimension. Peak intensities were extracted by fitting pseudo-Voigt lineshape models using peakipy (https://github.com/j-brady/peakipy). Fitted peak intensities were subsequently used to generate CEST profiles, and exchange parameters were fitted using ChemEx (https://github.com/gbouvignies/ChemEx).
Supplementary Figure 2. 13C-NMR and 19F-NMR reporter assays to monitor early
13C-HMQC spectra of hIL-1b (50 µM) were acquired in the presence (red) and absence (blue) of 500
µM compound and rows were extracted at the w1-frequency of the peak corresponding to Leu60 […]

[2] = target: T1, IL-1β; test: 19F-reporter displacement assay with (S)-1 as probe; type: binding; design: Mature hIL-1β was expressed in Escherichia coli; made in house; host or cells: Escherichia coli BL21 (DE3), pET17b
Experimental: Protein and reporter concentrations were 10 and 40 μM, respectively. To account for changes in sample homogeneity, samples contained 1-(2,2,2-trifluoroacetyl)piperidine-4-carboxylic acid as an internal reference for scaling signal intensities. Three concentrations of the competitor were typically measured, and the related displacement of the probe was converted into Ki-values according to Dalvit and Vulpetti[17]. […] This process was automated with FRPipe, an in-house developed Python script (https://github.com/Novartis/FRPipe) that allows for streamlined analysis of such experiments. […] For visual inspection, an overview containing relevant ^19F peaks, fitting curves, and proton spectra was plotted.
Supplementary Figure 2. 13C-NMR and 19F-NMR reporter assays to monitor early structure activity relationships of analogues of 1. a, b Early structure activity relationships monitored by protein-observed and c-f 19F-NMR reporter assays, exemplified for compound 8. a 1H-13C-HMQC spectra of hIL-1b (50 µM) were acquired in the presence (red) and absence (blue) of 500 µM compound and rows were extracted at the w1-frequency of the peak corresponding to Leu60 Cd1H3. b The degree of protein binding was estimated from the ratio I/I0, where I and I0 correspond to the signal in the presence and absence of compound, respectively. c For the assessment of the KI-values, the signal intensity of a reporter molecule (S)-1 was monitored in 19F-transverse relaxation experiments run in the absence and presence of increasing amounts of compound. d All intensities were scaled to the intensity of an internal standard (all signals in panel c and d are shifted on the X-axis for clarity). e KI-values were retrieved from theoretical binding curves calculated for each compound concentration8. f One-dimensional 1H-NMR spectra were recorded for each assay mixture to assess the structural integrity and solubility of the compound in the sample.
(1 picture or pasted object on this page, not shown here)

[3] = target: T1, IL-1β; test: SPR binding of compounds to immobilized hIL-1β; design: Mature hIL-1β was expressed in Escherichia coli; made in house; host or cells: Escherichia coli BL21 (DE3), pET17b
Experimental: All SPR experiments were performed with an SPR-32 instrument (Bruker Daltonics SPR, Hamburg, Germany). SPR chips were from XanTec bioanalytics GmbH (Düsseldorf, Germany).
C-terminally avi-tagged hIL-1β protein was immobilized onto a SAHC200M chip with a neutravidin-coated surface. Immobilization was performed with a protein injection of 0.02 mg/ml IL-1β diluted in PBS pH 7.5 (Gibco 70011-036, 10×), 0.05% Tween-20 for 5 min at 10 μl/min. The running buffer for binding studies of compounds was PBS pH 7.4, 0.05% Tween-20, and 2% DMSO. For the correction of small DMSO variations between samples, injections of 6 solvent samples ranging from 1% to 3% DMSO were run. Compound measurements were performed in MICK mode (multiple injection cycles kinetic) with a dose–response of 10 concentrations. Dissociation constants for compounds (KD) were obtained by determining steady-state fit that followed the 1:1 Langmuir model.
Data analysis was performed with the Sierra Analyzer 3.4.0 software from Bruker. Signal intensities were corrected for nonspecific binding to the surface by subtracting intensities from the reference surface from those of the hIL-1β surfaces (first reference subtraction) and by subtracting the buffer injection (second reference subtraction). KD values were carried out by determining a reporting point close to the end of the injection, used for steady-state fit, in addition to a kinetic fit delivering kon- and koff-values; both fitting models followed the 1:1 Langmuir equation.
Supplementary Figure 3. De termination of binding af fi nit ie s for se l ec ted ana l ogues of 1 by SPR. a - d Gr ap hs of exemplary experimen ts are given , where the sat urat ion of hI L-1b immobil ized on a chip was monitored at various concentrations of compound 3, 12, 10, and 11, respectively. Th e saturati on reached at equ ilibri um (insert) was plo tt ed versus the admini stered concentration and the equ ilibri um bin ding constant was derived from a non-li near lea st square fitting routine. e equ ilibri um and f kinetic bin ding of (S)-2 to IL-1b (kon = 1. 15 x 105 M-1 s-1 and koff = 0. 12 s-1).

[4] = target: T1, IL-1β; test: TR-FRET IL-1β/hIL-1R1 receptor displacement assay; type: biochemical; conditions: read-out: TR-FRET IL-1β IC50
Experimental: After 1 h incubation at room temperature, hIL-1R1 (1–332; Alexa 647 labeled; 50 nM final concentration) and anti-His-Europium W1024 (Perkin Elmer; Cat.No. AD0401, 1 nM final concentration) were added to a final volume of 10 μl per well. […] All experiments were run in triplicates.

[5] = target: T2, IL-1α (Homo sapiens, UniProt P01583); test: TR-FRET IL-1α/hIL-1R1 receptor displacement assay; type: biochemical; conditions: read-out: TR-FRET IL-1α IC50
T2 sequence (P01583 113-271): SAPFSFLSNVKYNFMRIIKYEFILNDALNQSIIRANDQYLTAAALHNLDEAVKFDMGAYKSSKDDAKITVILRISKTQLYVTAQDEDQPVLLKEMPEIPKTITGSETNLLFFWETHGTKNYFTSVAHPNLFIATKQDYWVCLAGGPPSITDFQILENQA
Experimental: After 1 h incubation at room temperature, hIL-1R1 (1–332; Alexa 647 labeled; 50 nM final concentration) and anti-His-Europium W1024 (Perkin Elmer; Cat.No. AD0401, 1 nM final concentration) were added to a final volume of 10 μl per well. After 1 h of incubation at room temperature, time-resolved fluorescence was measured at λexc = 320 ± 20 nm, λem = 620 ± 25 nm/665 ± 25 nm using a Pherastar FSX plate reader. All experiments were run in triplicates. The data provided a typical saturation-binding curve, and the IC50 values were calculated by fitting the results to the Hill equation using Prism 7.0 and the in-house software Helios.

[6] = 19F-reporter Ki, protein 10 μM, reporter (S)-1 40 μM
[7] = 19F-reporter, individual experiments (Exp1-58), source data
[8] = source data, read-out: SPR Kd, Mean
[9] = source data, read-out: SPR Kd, individual experiments (Exp1-5)
[10] = steady-state fit, 1:1 Langmuir, read-out: SPR KD

Ki ([2]; protein 10 μM, reporter (S)-1 40 μM, read-out: 19F-reporter Ki)	Ki ([2]; source data, read-out: 19F-reporter, individual experiments (Exp1-58))	SMILES	I/Io (ratio of peak intensities of Leu60 Cδ1H3 in 1H-13C-HMQC spectra in presence and absence of ligand) [1]	NMR I/Io values, Mean [1]	NMR I/Io values, individual experiments (Exp1-2) [1]	Ki [2, 6]	Ki [2, 7]	Kd [3, 8]	Kd [3, 9]	Kd [3, 10]	IC50 [4]	binding to hIL-1β by protein-observed NMR [1]	IC50 [5]
–	–	Cc1ccc2c(c1)NC(=O)C2(O)c1cc(C(C)C)ccc1O (stereo not drawn) [Compound 3]	0.19 ± 0.03 (N = 2)	0.19	0.17 and 0.21	151 ± 78 µM	206 µM and 96 µM	173 µM	174 µM and 171 µM	172 ± 2 µM	> 400 µM	–	–
–	–	Cc1ccc2c(c1)N(C)C(=O)C2(O)c1cc(C(C)C)ccc1O (stereo not drawn) [Compound 4]	0.98 ± 0.06 (N = 2)	0.98	0.94 and 1.02	> 1000 µM	–	–	–	–	> 500 µM	lack of binding	–
–	–	COc1ccc(Cl)cc1C1(O)C(=O)Nc2cc(C(F)(F)F)ccc21 (stereo not drawn) [Compound 5]	0.99 ± 0.06 (N = 2)	0.99	0.95 and 1.03	> 1000 µM	–	–	–	–	> 530 µM	lack of binding	–
–	–	O=C1Nc2ccccc2C1(O)c1cc(Cl)ccc1O (stereo not drawn) [Compound 6]	0.59 ± 0.03 (N = 2)	0.59	0.57 and 0.61	> 1000 µM	–	–	–	–	> 500 µM	decreases protein binding	–
–	–	O=C1Nc2cc(C(F)(F)F)ccc2C1(O)c1ccccc1O (stereo not drawn) [Compound 7]	0.45 ± 0.05 (N = 2)	–	0.41 and 0.48	> 1000 µM	–	–	–	–	> 500 µM	decreases protein binding	–
–	–	Cc1ccc2c(c1)NC(=O)C2(O)c1cc(Cl)ccc1O (stereo not drawn) [Compound 8]	0.18 ± 0.004 (N = 2)	0.18	0.18	312 ± 124 µM	110 µM and 195 µM and 206 µM and 210 µM and 215 µM and 223 µM and 233 µM and 254 µM (2×) and 260 µM (2×) and 120 µM and 261 µM and 262 µM and 268 µM and 278 µM and 281 µM and 282 µM and 283 µM and 287 µM and 292 µM and 293 µM and 133 µM and 295 µM and 309 µM and 317 µM and 325 µM and 331 µM (3×) and 337 µM and 338 µM and 340 µM and 162 µM and 345 µM and 362 µM and 382 µM and 387 µM and 393 µM and 395 µM and 399 µM and 427 µM and 439 µM (2×) and 164 µM and 454 µM and 456 µM and 471 µM and 475 µM and 580 µM and 600 µM and 622 µM (2×) and 86 µM and 183 µM (2×) and 184 µM (2×)	–	312 µM (2×) and 158 µM	261 ± 89 µM	> 200 µM	–	> 200 µM
–	–	O=C1Nc2cc(Cl)ccc2C1(O)c1cc(Cl)ccc1O (stereo not drawn) [Compound 9]	0.3 (N = 1)	–	–	172 ± 35 µM	197 µM and 147 µM	–	–	–	–	–	–
90 ± 41 µM	119 µM and 61 µM	Cc1ccc(O)c(C2(c3cn[nH]c3)C(=O)Nc3cc(C(F)(F)F)ccc32)c1 (stereo not drawn) [Compound 12]	<0.1 (N = 1)	–	–	–	–	138 µM	145 µM and 130 µM	138 ± 11 µM	> 200 µM	–	> 200 µM
–	–	Cc1ccc(O)c(C2(O)C(=O)Nc3cc(C(F)(F)F)ccc32)c1 (stereo not drawn) [Compound 13]	0.4 (N = 1)	–	–	–	–	–	–	> 1000 µM	–	–	–
